Measurements from patent US4754059A, “Omega cycloalkyl prostaglandins” (G. D. Searle & Co., priority 1984, dated 1988).

Experiments:
[1] = system: gastric secretions; assay: Dog gastric antisecretory activity (histamine-stimulated, Thomas-type gastric cannula); assay type: in vivo, beagle dogs; conditions: for ED50: Canis lupus familiaris, po, histamine stimulation
Protocol: The standard test used to detect gastric antisecretory activity is described as follows.
Adult female beagle dogs weighing 6-11 kg. are prepared with whole stomach simple Thomas-type gastric cannulas.
Following full recovery from the surgical implantation of the gastric cannula, the dogs are trained to stand quietly, though fully conscious, in Pavlov-type dog restraining slings and are accustomed to intravenous histamine infusion.
Experiments are initiated by depriving dogs of food, but not water, for 18 hours. With an initial infusion of 0.15M sodium chloride, at a constant rate of 6.5 ml/hr, gastric secretions collected in plastic bottles affixed to the cannula, are taken at 15 minute intervals and measured for volume to the nearest 0.1 ml. Following a 30-45 minute basal secretion period, the collection bottles are removed, dosing plugs inserted, and compound administered. A 3.0 ml saline wash follows immediately.
After the end of a 30 minute drug absorption period the stomachs are emptied, collection bottles again attached, and the collections resumed at 30 minute intervals. Simultaneously, the saline infusion is replaced with a continuous intravenous infusion of histamine dihydrochloride in saline at 15 ug/kg/hr for four hours. Gastric samples are analysed for pH and titratable acidity determinations.
An analysis of the data for each measured or derived variable compares observations recorded following treatment with variables obtained for the same group of animals receiving histamine stimulation alone. Three parameters, gastric juice volume (ml/30 min), acid concentration (mEq/L), and total acid output (mEq/30 min) are analyzed individually. The data thus obtained are analyzed using interval-by-interval paired Student's t-test or two-way analysis of variance to achieve an indication of potency and duration of action. Percentage inhibition is calculated using pooled mean values for the four hour treatment period. Duration of activity is defined as the length of time of significant inhibition.

[2] = Diarrheogenic activity in rats; assay type: in vivo, Charles River rats
Protocol: Diarrhea is an undesirable side effect commonly associated with antisecretory and cytoprotective prostaglandins.
Groups of six adult male Charles River rats, weight range 180 to 200 grams, are fasted for 24 hours prior to administering the test substance. The prostaglandin to be tested is administered intragastrically in iso-osmotic phosphate buffer at a volume of 10 ml/kg at doses ranging from 100 to 3000 microgram/kg. Control animals receive only the vehicle. The rats are placed in individual wire mesh cages and the trays lined with brown paper. Diarrhea is assessed at hourly intervals on an all or none basis for up to eight hours after administration of the prostaglandin. Diarrhea is defined as any loose or watery stool. ED50 values are assessed for each hourly diarrheogenic response.

[3] = system: lower esophageal sphincter; assay: Contraction of the lower esophageal sphincter; conditions: no method given
[4] = intragastric administration, dog

Row | Structure (SMILES) | Dog antisecretory activity (in words) ([1]; intragastric administration, dog, doses 0.3 and 1.0) | ED50 [1, 4] | antisecretory activity (in words) [1] | diarrheogenic properties (in words) [2] | property of contracting the lower esophageal sphincter [3]
1 | COC(=O)CCC/C=C\C[C@H]1C(=O)C[C@@H](O)[C@@H]1/C=C/CC(C)(O)CCC1CCCC1 (relative stereo) [Compound II, reference compound] | Inactive at 0.3 and 1.0 |  |  |  | 
2 | COC(=O)CC/C=C\CC[C@H]1C(=O)C[C@@H](O)[C@@H]1/C=C/CC(C)(O)CCC1CC1 (relative stereo) [Example 1] |  | 0.2 µg/kg |  |  | 
3 | COC(=O)CC/C=C\CC[C@H]1C(=O)C[C@@H](O)[C@@H]1/C=C/CC(C)(O)CCC1CCCC1 (relative stereo) [Example 2] |  | 0.3 µg/kg | potent | low | contracting the lower esophageal sphincter
4 | COC(=O)CC/C=C\CC[C@H]1C(=O)C[C@@H](O)[C@@H]1/C=C/CC(C)(O)CCC1CCC1 (relative stereo) [Example 3] |  |  | potent | low | 
5 | COC(=O)CC/C=C\CC[C@H]1C(=O)C[C@@H](O)[C@@H]1/C=C/CC(C)(O)CCC1(C)CC1 (relative stereo) [Example 7, methyl 7-[3α-hydroxy-2β-4-hydroxy-4-methyl-6-(1-methylcyclopropyl)-1-trans-hexenyl-5-oxocyclopentane]-1α-hept-4-cis-enoate] |  | 0.3 µg/kg |  |  | 
